Measurements as given in patent US20040162295A1, “Pharmaceutical compound” (priority 2001, published 2004).

What was measured:
Oral exposure = assay type: in vivo
Factor Xa = Factor Xa (Homo sapiens, UniProt P00742); test: Factor Xa inhibition; assay type: biochemical
[1] = Behaviour of the solid in the presence of water; assay type: physicochemical; settings: in the presence of water / suspended in distilled water, stirred 24 hours
Method: Stability in the presence of water is desirable in a product intended to be formulated in a pharmaceutical composition using a process that brings it into contact with water, such as a wet granulation process used in the preparation of a tablet.
1.5 g of Form 1 of 1-(indole-6-carbonyl-D-phenylglycinyl)-4-(1-methylpiperidin-4-yl)piperazine difumarate was suspended in 10 ml of distilled water and stirred for 24 hours. The suspension thickened after 5-6 hours, but stirring was continued for the remaining time. The suspension was centrifuged to isolate the solid. The solid was washed with cyclohexane and dried at ambient temperature under vacuum.

[2] = Stability study on crystalline forms (temperature, humidity, light); assay type: physicochemical; settings: for Morphological stability: high relative humidity (above 70%)
Method: Notes: % expressed with reference to material stored at −70° C.
% RH means percentage relative humidity.

[3] = Vapor pressure isotherm determination / hygroscopicity; assay type: physicochemical
Excerpt: The mono hydrochloride salt of 1-(indole-6-carbonyl-D-phenylglycinyl)-4-(1-methylpiperidin-4-yl)piperazine has also been prepared. The monohydrochloride salt was initially obtained as an amorphous solid. This solid was cycled through a vapor pressure isotherm determination, in which the solid initially deliquesced, then dehydrated.
Using a microbalance flow system, the original material was cycled through a vapor pressure isotherm determination, where the material deliquesced, then allowed to deydrate.

[4] = 40° C./75% RH, 7 Days, difumarate
[5] = 40° C./75% RH, 28 Days, difumarate

Factor Xa, sequence (P00742 235-488 limits assumed): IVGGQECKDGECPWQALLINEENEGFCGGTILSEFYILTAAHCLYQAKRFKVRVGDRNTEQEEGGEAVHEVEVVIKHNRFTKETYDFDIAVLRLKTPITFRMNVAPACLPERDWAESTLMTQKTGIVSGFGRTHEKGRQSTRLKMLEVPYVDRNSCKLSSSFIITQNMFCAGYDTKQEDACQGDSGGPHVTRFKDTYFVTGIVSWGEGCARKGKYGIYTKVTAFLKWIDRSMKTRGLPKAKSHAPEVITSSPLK
Factor Xa, sequence (P00742 41-179 partner limits assumed): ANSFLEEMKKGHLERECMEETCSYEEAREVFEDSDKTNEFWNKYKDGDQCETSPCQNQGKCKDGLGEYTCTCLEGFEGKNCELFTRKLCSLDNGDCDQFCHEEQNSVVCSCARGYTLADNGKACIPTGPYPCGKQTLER

Row | Stability of the crystalline form in the presence of water [1] | Stability study, % expressed with reference to material stored at −70° C. [2, 4] [%] | Stability study, % expressed with reference to material stored at −70° C. [2, 5] [%] | Stability study, % expressed with reference to material stored at −70° C. ([2]; 70° C., 7 Days, difumarate) [%] | Stability study, % expressed with reference to material stored at −70° C. ([2]; 70° C., 28 Days, difumarate) [%] | Morphological stability [2] | Compound | also measured
1 |  |  |  |  |  |  | CN1CCC(N2CCN(C(=O)[C@H](NC(=O)c3ccc4cc[nH]c4c3)c3ccccc3)CC2)CC1 [1-(indole-6-carbonyl-D-phenylglycinyl)-4-(1-methylpiperidin-4-yl)piperazine] | Oral exposure (Oral exposure): good; Inhibition of Factor Xa (Factor Xa): potent and selective inhibitor
2 | converted into Form 2 | 99.6 | 99.5 | 99.0 | 100.2 | morphologically stable | CN1CCC(N2CCN(C(=O)[C@H](NC(=O)c3ccc4cc[nH]c4c3)c3ccccc3)CC2)CC1.O=C(O)/C=C/C(=O)O.O=C(O)/C=C/C(=O)O [Form 1, 1-(indole-6-carbonyl-D-phenylglycinyl)-4-(1-methylpiperidin-4-yl)piperazine difumarate] | Stability study, % expressed with reference to material stored at −70° C. ([2]; 40° C., 7 Days): 100.5%; Stability study, % expressed with reference to material stored at −70° C. ([2]; 40° C., 28 Days): 99.8%; Stability study, % expressed with reference to material stored at −70° C. ([2]; 50° C., 7 Days): 99.3%; Stability study, % expressed with reference to material stored at −70° C. ([2]; 50° C., 28 Days): 99.4%; Stability study, % expressed with reference to material stored at −70° C. ([2]; Light, 7 Days): 99.7%; Stability study, % expressed with reference to material stored at −70° C. ([2]; Light, 28 Days): 98.9%
3 |  | 99.3 | 99.6 | 99.1 | 99.0 | morphologically stable | CN1CCC(N2CCN(C(=O)[C@H](NC(=O)c3ccc4cc[nH]c4c3)c3ccccc3)CC2)CC1.O=C(O)/C=C/C(=O)O.O=C(O)/C=C/C(=O)O [Form 2, 1-(indole-6-carbonyl-D-phenylglycinyl)-4-(1-methylpiperidin-4-yl)piperazine difumarate] | 
4 | tended to convert into a gel |  |  |  |  |  | CN1CCC(N2CCN(C(=O)[C@H](NC(=O)c3ccc4cc[nH]c4c3)c3ccccc3)CC2)CC1 [chloroform solvate, 1-(indole-6-carbonyl-D-phenylglycinyl)-4-(1-methylpiperidin-4-yl)piperazine] | 
5 |  |  |  |  |  |  | CN1CCC(N2CCN(C(=O)[C@H](NC(=O)c3ccc4cc[nH]c4c3)c3ccccc3)CC2)CC1.Cl [compound 1, 1-(indole-6-carbonyl-D-phenylglycinyl)-4-(1-methylpiperidin-4-yl)piperazine hydrochloride] | Hygroscopicity ([3]; amorphous and crystalline material): hygroscopic; Behaviour of the solid in vapor pressure isotherm determination ([3]; amorphous solid, microbalance flow system): deliquesced
